{"source": "PubChem BioAssay AID328", "about": "(DTP/NCI, 2004)", "test_system": "BDF1 mice, P388 leukemia ip, median survival T/C", "assay": "NCI In Vivo Anticancer Drug Screen. Data for tumor model P388 Leukemia (intraperitoneal) in B6D2F1 (BDF1) mice", "settings": "endpoint: median survival time, higher = longer survival", "summary_of_the_method": "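Steps: implant the tumour, treat one group with compound and another with vehicle, record survival, then divide treated by control.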", "note": "Several values for one entry are separate records, joined by “and”; a condition that tells them apart may be missing. Equal entries are not always repeated. Toxic doses and inconclusive results are not listed.", "data": [{"smiles": "O=C1c2ccccc2C(=O)c2c(NCCNCCO)ccc(NCCNCCO)c21", "values": [{"measurement": "T/C", "setting": "dose: 2.0 mg/kg/injection, schedule: Q01DX009 (ip), vehicle: water", "result": "163 % of control"}, {"measurement": "T/C", "setting": "dose: 3.12 mg/kg/injection, schedule: Q01DX009 (ip), vehicle: saline", "result": "262 % of control and 403 % of control and 239 % of control"}, {"measurement": "T/C", "setting": "dose: 4.0 mg/kg/injection, schedule: Q01DX009 (ip), vehicle: water", "result": "111 % of control"}, {"measurement": "T/C", "setting": "dose: 4.0 mg/kg/injection, schedule: Q04DX003 (ip), vehicle: saline with Tween-80", "result": "154 % of control"}, {"measurement": "T/C", "setting": "dose: 6.25 mg/kg/injection, schedule: Q01DX009 (ip), vehicle: saline", "result": "502 % of control and 202 % of control and 189 % of control"}, {"measurement": "T/C", "setting": "dose: 8.0 mg/kg/injection, schedule: Q01DX009 (ip), vehicle: water", "result": "96 % of control"}, {"measurement": "T/C", "setting": "dose: 8.0 mg/kg/injection, schedule: Q04DX003 (ip), vehicle: saline with Tween-80", "result": "165 % of control"}, {"measurement": "T/C", "setting": "dose: 12.5 mg/kg/injection, schedule: Q01DX009 (ip), vehicle: saline", "result": "503 % of control and 517 % of control"}, {"measurement": "T/C", "setting": "dose: 13.0 mg/kg/injection, schedule: Q04DX003 (ip), vehicle: saline + alcohol", "result": "222 % of control"}, {"measurement": "T/C", "setting": "dose: 16.0 mg/kg/injection, schedule: Q04DX003 (ip), vehicle: saline with Tween-80", "result": "165 % of control"}, {"measurement": "T/C", "setting": "dose: 21.6 mg/kg/injection, schedule: Q04DX003 (ip), vehicle: saline + alcohol", "result": "321 % of control"}, {"measurement": "T/C", "setting": "dose: 25.0 mg/kg/injection, schedule: Q01DX009 (ip), vehicle: saline", "result": "517 % of control"}, {"measurement": "T/C", "setting": "dose: 32.0 mg/kg/injection, schedule: Q04DX003 (ip), vehicle: saline with Tween-80", "result": "192 % of control"}, {"measurement": "T/C", "setting": "dose: 36.0 mg/kg/injection, schedule: Q04DX003 (ip), vehicle: saline + alcohol", "result": "311 % of control"}, {"measurement": "T/C", "setting": "dose: 50.0 mg/kg/injection, schedule: Q01DX009 (ip), vehicle: saline", "result": "74 % of control"}, {"measurement": "T/C", "setting": "dose: 60.0 mg/kg/injection, schedule: Q04DX003 (ip), vehicle: saline + alcohol", "result": "201 % of control"}, {"measurement": "T/C", "setting": "dose: 64.0 mg/kg/injection, schedule: Q04DX003 (ip), vehicle: saline with Tween-80", "result": "274 % of control"}]}, {"smiles": "Nc1nc(SCc2ccccc2)c2[nH]cnc2n1", "values": [{"measurement": "T/C", "setting": "dose: 8.0 mg/kg/injection, schedule: Q01DX010 (ip), vehicle: saline", "result": "90 % of control and 100 % of control"}, {"measurement": "T/C", "setting": "dose: 16.0 mg/kg/injection, schedule: Q01DX010 (ip), vehicle: saline", "result": "90 % of control and 105 % of control"}, {"measurement": "T/C", "setting": "dose: 32.0 mg/kg/injection, schedule: Q01DX010 (ip), vehicle: saline", "result": "90 % of control and 110 % of control"}, {"measurement": "T/C", "setting": "dose: 64.0 mg/kg/injection, schedule: Q01DX010 (ip), vehicle: saline", "result": "104 % of control and 120 % of control"}]}, {"smiles": "CO[C@H]1/C=C/O[C@@]2(C)Oc3c(C)c(O)c4c(O)c(c(/C=N/N5C(C)CN(Cc6ccccc6)CC5C)c(O)c4c3C2=O)NC(=O)/C(C)=C\\C=C\\[C@H](C)[C@H](O)[C@@H](C)[C@@H](O)[C@@H](C)[C@H](OC(C)=O)[C@@H]1C", "note": "(stereo partly specified)", "values": [{"measurement": "T/C", "setting": "dose: 12.5 mg/kg/injection, schedule: Q01DX005 (ip), vehicle: Klucel (hydroxypropylcellulose) (HPC)", "result": "94 % of control"}, {"measurement": "T/C", "setting": "dose: 12.5 mg/kg/injection, schedule: Q01DX005 (ip), vehicle: other", "result": "97 % of control"}, {"measurement": "T/C", "setting": "dose: 12.5 mg/kg/injection, schedule: Q01DX005 (oral), vehicle: other", "result": "103 % of control"}, {"measurement": "T/C", "setting": "dose: 12.5 mg/kg/injection, schedule: Q02DX Z (oral), vehicle: Klucel (hydroxypropylcellulose) (HPC)", "result": "89 % of control"}, {"measurement": "T/C", "setting": "dose: 25.0 mg/kg/injection, schedule: Q01DX005 (ip), vehicle: Klucel (hydroxypropylcellulose) (HPC)", "result": "97 % of control"}, {"measurement": "T/C", "setting": "dose: 25.0 mg/kg/injection, schedule: Q01DX005 (ip), vehicle: other", "result": "106 % of control"}, {"measurement": "T/C", "setting": "dose: 25.0 mg/kg/injection, schedule: Q01DX005 (oral), vehicle: Klucel (hydroxypropylcellulose) (HPC)", "result": "104 % of control"}, {"measurement": "T/C", "setting": "dose: 25.0 mg/kg/injection, schedule: Q01DX005 (oral), vehicle: other", "result": "103 % of control"}, {"measurement": "T/C", "setting": "dose: 25.0 mg/kg/injection, schedule: Q02DX Z (ip), vehicle: Klucel (hydroxypropylcellulose) (HPC)", "result": "105 % of control"}, {"measurement": "T/C", "setting": "dose: 50.0 mg/kg/injection, schedule: Q01DX005 (ip), vehicle: Klucel (hydroxypropylcellulose) (HPC)", "result": "94 % of control"}, {"measurement": "T/C", "setting": "dose: 50.0 mg/kg/injection, schedule: Q01DX005 (ip), vehicle: other", "result": "103 % of control"}, {"measurement": "T/C", "setting": "dose: 50.0 mg/kg/injection, schedule: Q01DX005 (oral), vehicle: Klucel (hydroxypropylcellulose) (HPC)", "result": "104 % of control"}, {"measurement": "T/C", "setting": "dose: 50.0 mg/kg/injection, schedule: Q01DX005 (oral), vehicle: other", "result": "104 % of control"}, {"measurement": "T/C", "setting": "dose: 50.0 mg/kg/injection, schedule: Q01DX009 (ip), vehicle: Klucel (hydroxypropylcellulose) (HPC)", "result": "90 % of control"}, {"measurement": "T/C", "setting": "dose: 50.0 mg/kg/injection, schedule: Q02DX Z (ip), vehicle: Klucel (hydroxypropylcellulose) (HPC)", "result": "105 % of control"}, {"measurement": "T/C", "setting": "dose: 50.0 mg/kg/injection, schedule: Q02DX Z (oral), vehicle: Klucel (hydroxypropylcellulose) (HPC)", "result": "99 % of control"}, {"measurement": "T/C", "setting": "dose: 100.0 mg/kg/injection, schedule: Q01DX005 (ip), vehicle: Klucel (hydroxypropylcellulose) (HPC)", "result": "100 % of control"}, {"measurement": "T/C", "setting": "dose: 100.0 mg/kg/injection, schedule: Q01DX005 (ip), vehicle: other", "result": "106 % of control"}, {"measurement": "T/C", "setting": "dose: 100.0 mg/kg/injection, schedule: Q01DX005 (oral), vehicle: Klucel (hydroxypropylcellulose) (HPC)", "result": "105 % of control"}, {"measurement": "T/C", "setting": "dose: 100.0 mg/kg/injection, schedule: Q01DX005 (oral), vehicle: other", "result": "114 % of control"}, {"measurement": "T/C", "setting": "dose: 100.0 mg/kg/injection, schedule: Q01DX009 (ip), vehicle: Klucel (hydroxypropylcellulose) (HPC)", "result": "100 % of control"}, {"measurement": "T/C", "setting": "dose: 100.0 mg/kg/injection, schedule: Q02DX Z (ip), vehicle: Klucel (hydroxypropylcellulose) (HPC)", "result": "110 % of control"}, {"measurement": "T/C", "setting": "dose: 100.0 mg/kg/injection, schedule: Q02DX Z (oral), vehicle: Klucel (hydroxypropylcellulose) (HPC)", "result": "100 % of control"}, {"measurement": "T/C", "setting": "dose: 200.0 mg/kg/injection, schedule: Q01DX005 (ip), vehicle: Klucel (hydroxypropylcellulose) (HPC)", "result": "86 % of control"}, {"measurement": "T/C", "setting": "dose: 200.0 mg/kg/injection, schedule: Q01DX005 (ip), vehicle: other", "result": "112 % of control"}, {"measurement": "T/C", "setting": "dose: 200.0 mg/kg/injection, schedule: Q01DX005 (oral), vehicle: Klucel (hydroxypropylcellulose) (HPC)", "result": "105 % of control"}, {"measurement": "T/C", "setting": "dose: 200.0 mg/kg/injection, schedule: Q01DX009 (ip), vehicle: Klucel (hydroxypropylcellulose) (HPC)", "result": "100 % of control"}, {"measurement": "T/C", "setting": "dose: 200.0 mg/kg/injection, schedule: Q02DX Z (ip), vehicle: Klucel (hydroxypropylcellulose) (HPC)", "result": "110 % of control"}, {"measurement": "T/C", "setting": "dose: 200.0 mg/kg/injection, schedule: Q02DX Z (oral), vehicle: Klucel (hydroxypropylcellulose) (HPC)", "result": "89 % of control"}, {"measurement": "T/C", "setting": "dose: 400.0 mg/kg/injection, schedule: Q01DX005 (ip), vehicle: Klucel (hydroxypropylcellulose) (HPC)", "result": "97 % of control"}, {"measurement": "T/C", "setting": "dose: 400.0 mg/kg/injection, schedule: Q01DX005 (oral), vehicle: Klucel (hydroxypropylcellulose) (HPC)", "result": "106 % of control"}, {"measurement": "T/C", "setting": "dose: 400.0 mg/kg/injection, schedule: Q02DX Z (ip), vehicle: Klucel (hydroxypropylcellulose) (HPC)", "result": "116 % of control"}, {"measurement": "T/C", "setting": "dose: 400.0 mg/kg/injection, schedule: Q02DX Z (oral), vehicle: Klucel (hydroxypropylcellulose) (HPC)", "result": "91 % of control"}, {"measurement": "T/C", "setting": "dose: 800.0 mg/kg/injection, schedule: Q01DX005 (oral), vehicle: Klucel (hydroxypropylcellulose) (HPC)", "result": "104 % of control"}, {"measurement": "T/C", "setting": "dose: 800.0 mg/kg/injection, schedule: Q02DX Z (ip), vehicle: Klucel (hydroxypropylcellulose) (HPC)", "result": "110 % of control"}, {"measurement": "T/C", "setting": "dose: 1600.0 mg/kg/injection, schedule: Q01DX005 (oral), vehicle: Klucel (hydroxypropylcellulose) (HPC)", "result": "110 % of control"}, {"measurement": "T/C", "setting": "dose: 1600.0 mg/kg/injection, schedule: Q02DX Z (ip), vehicle: Klucel (hydroxypropylcellulose) (HPC)", "result": "109 % of control"}]}, {"smiles": "CC(C)C(=O)[O][Sn]([CH3])([CH3])[CH3]", "values": [{"measurement": "T/C", "setting": "dose: 0.75 mg/kg/injection, schedule: Q01DX009 (ip), vehicle: saline", "result": "100 % of control"}, {"measurement": "T/C", "setting": "dose: 1.5 mg/kg/injection, schedule: Q01DX009 (ip), vehicle: saline", "result": "91 % of control"}]}, {"smiles": "O=C(O)CCC(=O)c1cccc2ccccc12", "values": [{"measurement": "T/C", "setting": "dose: 50.0 mg/kg/injection, schedule: Q01DX001 (ip), vehicle: other", "result": "100 % of control"}, {"measurement": "T/C", "setting": "dose: 50.0 mg/kg/injection, schedule: Q04DX003 (ip), vehicle: Klucel (hydroxypropylcellulose) (HPC)", "result": "104 % of control"}, {"measurement": "T/C", "setting": "dose: 100.0 mg/kg/injection, schedule: Q01DX001 (ip), vehicle: other", "result": "90 % of control"}, {"measurement": "T/C", "setting": "dose: 100.0 mg/kg/injection, schedule: Q04DX003 (ip), vehicle: Klucel (hydroxypropylcellulose) (HPC)", "result": "100 % of control"}, {"measurement": "T/C", "setting": "dose: 200.0 mg/kg/injection, schedule: Q01DX001 (ip), vehicle: other", "result": "100 % of control"}, {"measurement": "T/C", "setting": "dose: 200.0 mg/kg/injection, schedule: Q04DX003 (ip), vehicle: Klucel (hydroxypropylcellulose) (HPC)", "result": "113 % of control"}]}]}
